Tested on: Abp1 PPIs
Assay: DHFR-PCA of Abp1 SH3-swapped baits (Fig. 2B-D, S2C, S2F);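 on Protein-protein interaction distance between Abp1 SH3-swapped baits, to ABP1: Euclidean distance between DHFR-PCA score profiles of the baits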;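 on Protein-protein interaction distance between Abp1 SH3-swapped baits, to BEM1-2: Euclidean distance between DHFR-PCA score profiles of the baits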;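 on Protein-protein interaction distance between Abp1 SH3-swapped baits, to BOI1: Euclidean distance between DHFR-PCA score profiles of the baits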;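 on Protein-protein interaction distance between Abp1 SH3-swapped baits, to BZZ1-1: Euclidean distance between DHFR-PCA score profiles of the baits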
Assay type: cell-based, Saccharomyces cerevisiae
Text: Having determined that multiple PPIs require SH3s, we asked whether the latter establish PPI specificity independently from their host proteins by swapping domains (Fig. 2A). Using the second round of genome editing, we individually replaced Abp1 SH3 with the 27 yeast SH3s and 3 human Abp1 orthologs’ SH3s (CTTN, HCLS1, and DBNL, Fig. 2B). The reintroduction of its own SH3 (Abp1SH3 in Abp1) reconstitutes almost perfectly Abp1’s interaction profile (Kendall’s τ = 0.93, Fig. 2B). […] No homologous SH3 domain fully re-establishes the normal Abp1 PPI profile (Fig. 2B and Supplementary Fig. 2C). However, we observe a significant correlation (cophenetic correlation = 0.20, p value = 0.005, Fig. 2C) between the similarity of PPI profiles (Fig. 2B) and the sequence similarity of the SH3s. […] Nonetheless, a subset of SH3-dependent PPIs is only observed with the endogenous domain. For instance, Hua2 and App1, both well-characterized partners of Abp1[14],[18],[19], are only detected when Abp1 contains its own SH3 (WT or swapped via editing). A given SH3 may therefore not be fully replaceable with other paralogous or orthologous domains. This pattern is confirmed by cellular growth phenotypic analyses (Supplementary Fig. 2D, E). PPIs, SH3 sequence similarity, and growth profiles under stress conditions are correlated (Supplementary Fig. 2D, E). This relationship is particularly clear when analyzing growth on media supplemented with hygromycin.
The stuffing of YSC84 SH3 rendered the strain sterile and was therefore not used for this study as the assays require crosses. For genes containing two SH3s (BZZ1 and BEM1), a combination of this first stuffer with a second one ([…]) coding for a highly similar linker ([…]) was used, which allowed targeting each SH3 position independently. The two N-terminal domains of SLA1, which are separated by six nucleotides, were stuffed by a single stuffer. Cells containing pCAS were selected via the G418 resistance cassette from the plasmid on YPD plates (YPD + NAT 100 μg/ml (DHFR F[1,2] selection) + G418 200 µg/mL (Bioshop Canada)). Colonies were randomly selected and grown in YPD media without G418 to allow plasmid loss. The correct insertion of the stuffer was validated by PCR and Sanger sequencing. The SH3-swapped, -shuffled, and -mutated strains were constructed following a second CRISPR–Cas9 editing step with the same procedures. The stuffer sequences were targeted by specific gRNAs (one gRNA per stuffer) and replaced by PCR amplified specific SH3 (with 40 bp homology arms) or libraries of mutated SH3 domains for Deep Mutational Scanning (DMS) with 78 bp flanking homology regions. Validation of the SH3 domain insertions was done as we previously described except for DMS libraries (see below).
The overall DHFR-PCA pipeline is based on Tarassov et al.[43] and the procedures have also been published as a visualized protocol. The screens were performed with robotically manipulated pin tools (BM5-SC1, S&P Robotics Inc.). First, the preys were cherry-picked from 96-well plates to omnitrays in a 384 format on YPD + HPH solid media. Plates were then combined into the 1536 format on YPD + HPH. The array was constituted of 575 preys previously shown to interact physically with at least one SH3-containing protein as reported in BioGRID V3.4.16 along with 40 negative controls. The prey array comprised a border of control strains of two rows and two columns corresponding to the PPI between LSM8-DHFR F[1,2] and CDC39-DHFR F[3]. This double border was used to remove border effects. Preys are present in duplicate at a randomized position in the 1536 array (except for YAL041W which is present four times per array). Baits were crossed with two prey plates, resulting in four independent bait–prey tests for each PPI. Baits were grown in liquid YPD + NAT and then transferred on solid YPD + NAT omnitrays. They were then replicated on YPD + NAT omnitrays in 1536 array format. […]

Q: How did the “Protein-protein interaction distance between Abp1 SH3-swapped baits, to ABP1” value (Abp1 bait with swapped SH3, distance to bait with ABP1 SH3, sheet Fig2C) turn out when CDC25 was run?
A: The value was 26.13.

Q: What about the “Protein-protein interaction distance between Abp1 SH3-swapped baits, to BBC1” value (distance to Abp1 bait with BBC1 SH3, sheet Fig2C) of the same substance?
A: Its value is 24.45.

Q: What about the “Protein-protein interaction distance between Abp1 SH3-swapped baits, to BEM1-1” value (distance to Abp1 bait with BEM1-1 SH3, sheet Fig2C) of the same substance?
A: Its value is 16.86.

Q: And the “Protein-protein interaction distance between Abp1 SH3-swapped baits, to BEM1-2” value (distance to Abp1 bait with BEM1-2 SH3, sheet Fig2C)?
A: Its value is 13.04.

Q: What about the “Protein-protein interaction distance between Abp1 SH3-swapped baits, to BOI1” value (distance to Abp1 bait with BOI1 SH3, sheet Fig2C) of the same substance?
A: Its value is 21.

Q: What about the “Protein-protein interaction distance between Abp1 SH3-swapped baits, to BOI2” value (distance to Abp1 bait with BOI2 SH3, sheet Fig2C) of the same substance?
A: The value was 19.43.

Q: And the “Protein-protein interaction distance between Abp1 SH3-swapped baits, to BUD14” value (distance to Abp1 bait with BUD14 SH3, sheet Fig2C)?
A: The value was 15.51.

Q: And the “Protein-protein interaction distance between Abp1 SH3-swapped baits, to BZZ1-1” value (distance to Abp1 bait with BZZ1-1 SH3, sheet Fig2C)?
A: Its value is 25.36.

Q: What about the “Protein-protein interaction distance between Abp1 SH3-swapped baits, to BZZ1-2” value (distance to Abp1 bait with BZZ1-2 SH3, sheet Fig2C) of the same substance?
A: Its value is 21.74.

Q: What about the “Protein-protein interaction distance between Abp1 SH3-swapped baits, to CDC25” value (distance to Abp1 bait with CDC25 SH3, sheet Fig2C) of the same substance?
A: The value was 0.00.

Q: What about the “Protein-protein interaction distance between Abp1 SH3-swapped baits, to CTTN” value (distance to Abp1 bait with CTTN SH3, sheet Fig2C) of the same substance?
A: Its value is 20.74.

Q: And the “Protein-protein interaction distance between Abp1 SH3-swapped baits, to CYK3” value (distance to Abp1 bait with CYK3 SH3, sheet Fig2C)?
A: Its value is 5.497.

Q: And the “Protein-protein interaction distance between Abp1 SH3-swapped baits, to DBNL” value (distance to Abp1 bait with DBNL SH3, sheet Fig2C)?
A: The value was 24.44.

Q: What about the “Protein-protein interaction distance between Abp1 SH3-swapped baits, to FUS1” value (distance to Abp1 bait with FUS1 SH3, sheet Fig2C) of the same substance?
A: Its value is 14.2.

Q: And the “Protein-protein interaction distance between Abp1 SH3-swapped baits, to HCLS1” value (distance to Abp1 bait with HCLS1 SH3, sheet Fig2C)?
A: Its value is 27.89.

Q: And the “Protein-protein interaction distance between Abp1 SH3-swapped baits, to HOF1” value (distance to Abp1 bait with HOF1 SH3, sheet Fig2C)?
A: The value was 10.42.

Q: What about the “Protein-protein interaction distance between Abp1 SH3-swapped baits, to HSE1” value (distance to Abp1 bait with HSE1 SH3, sheet Fig2C) of the same substance?
A: The value was 24.19.

Q: And the “Protein-protein interaction distance between Abp1 SH3-swapped baits, to LSB1” value (distance to Abp1 bait with LSB1 SH3, sheet Fig2C)?
A: Its value is 30.85.

Q: And the “Protein-protein interaction distance between Abp1 SH3-swapped baits, to LSB3” value (distance to Abp1 bait with LSB3 SH3, sheet Fig2C)?
A: The value was 30.47.

Q: And the “Protein-protein interaction distance between Abp1 SH3-swapped baits, to MYO3” value (distance to Abp1 bait with MYO3 SH3, sheet Fig2C)?
A: The value was 29.41.

Q: And the “Protein-protein interaction distance between Abp1 SH3-swapped baits, to MYO5” value (distance to Abp1 bait with MYO5 SH3, sheet Fig2C)?
A: The value was 28.8.

Q: What about the “Protein-protein interaction distance between Abp1 SH3-swapped baits, to NBP2” value (distance to Abp1 bait with NBP2 SH3, sheet Fig2C) of the same substance?
A: The value was 15.13.

Q: What about the “Protein-protein interaction distance between Abp1 SH3-swapped baits, to PEX13” value (distance to Abp1 bait with PEX13 SH3, sheet Fig2C) of the same substance?
A: Its value is 29.16.

Q: What about the “Protein-protein interaction distance between Abp1 SH3-swapped baits, to PIN3” value (distance to Abp1 bait with PIN3 SH3, sheet Fig2C) of the same substance?
A: Its value is 28.09.

Q: And the “Protein-protein interaction distance between Abp1 SH3-swapped baits, to RVS167” value (distance to Abp1 bait with RVS167 SH3, sheet Fig2C)?
A: Its value is 27.4.

Q: And the “Protein-protein interaction distance between Abp1 SH3-swapped baits, to SDC25” value (distance to Abp1 bait with SDC25 SH3, sheet Fig2C)?
A: Its value is 14.8.

Q: And the “Protein-protein interaction distance between Abp1 SH3-swapped baits, to SHO1” value (distance to Abp1 bait with SHO1 SH3, sheet Fig2C)?
A: Its value is 24.02.

Q: And the “Protein-protein interaction distance between Abp1 SH3-swapped baits, to SLA1-1” value (distance to Abp1 bait with SLA1-1 SH3, sheet Fig2C)?
A: The value was 7.329.

Q: And the “Protein-protein interaction distance between Abp1 SH3-swapped baits, to SLA1-2” value (distance to Abp1 bait with SLA1-2 SH3, sheet Fig2C)?
A: The value was 13.18.

Q: What about the “Protein-protein interaction distance between Abp1 SH3-swapped baits, to SLA1-3” value (distance to Abp1 bait with SLA1-3 SH3, sheet Fig2C) of the same substance?
A: The value was 30.95.

Q: And the “Protein-protein interaction distance between Abp1 SH3-swapped baits, to YSC84” value (distance to Abp1 bait with YSC84 SH3, sheet Fig2C)?
A: The value was 30.76.

Q: And the “SH3-dependent PPIs - SH3-dependent PPIs gained by Abp1” value (number of PPIs, difference, Abp1 SH3-swapped with the listed SH3, Fig2D,S2F)?
A: The value was 3.

Q: What about the “SH3-dependent PPIs gained by Abp1” value (number of PPIs, Abp1 SH3-swapped with the listed SH3, DHFR-PCA, Fig2D,S2F) of the same substance?
A: Its value is 0.

Source: article PMC7954794, “Protein context shapes the specificity of SH3 domain-mediated interactions in vivo” (Nature Communications, 2021)
